Data from ChEMBL document CHEMBL4265968, “Efficient analoging around ethionamide to explore thioamides bioactivation pathways triggered by boosters in Mycobacterium tuberculosis” (Eur J Med Chem, 2018).
In brackets after ≈: the same amount, converted by molar mass.

Legend:
[1] = test system: Mycobacterium tuberculosis; test: Antimycobacterial activity against GFP expressing Mycobacterium tuberculosis H37Rv after 7 days in presence of EthR2 inhibitor SMARt-420 by fluorescence assay; type: functional; conditions: 168 h
[2] = test system: Mycobacterium tuberculosis; test: Antimycobacterial activity against GFP expressing Mycobacterium tuberculosis H37Rv after 7 days by fluorescence assay; type: functional; conditions: 168 h
[3] = test system: Mycobacterium tuberculosis; test: Ratio of MIC50 for GFP expressing Mycobacterium tuberculosis H37Rv in absence of EthR inhibitor BDM41906 to MIC50 for GFP expressing Mycobacterium tuberculosis H37Rv in presence of EthR inhibitor BDM41906; type: functional
[4] = test system: Mycobacterium tuberculosis; test: Antimycobacterial activity against GFP expressing Mycobacterium tuberculosis H37Rv after 7 days in presence of EthR inhibitor BDM41906 by fluorescence assay; type: functional; conditions: 168 h
[5] = test system: Mycobacterium tuberculosis; test: Ratio of MIC50 for GFP expressing Mycobacterium tuberculosis H37Rv in absence of EthR2 inhibitor SMARt-420 to MIC50 for GFP expressing Mycobacterium tuberculosis H37Rv in presence of EthR2 inhibitor SMARt-420; type: functional
[6] = Electrochemical behavior of the compound assessed as redox potential corrected toward normal hydrogen electrode at 10^-3 M by cyclic voltammetry; type: physicochemical; conditions: 1000 µM

Compound	MIC50 [1]	MIC50 [2]	Ratio [3]	MIC50 [4]	Ratio [5]	Activity [6]
NC(=S)c1ccnc(CC2CCCCC2)c1	0.7 µM	> 30 µM	>50	0.6 µM	>43	1.62 V
CC(C)c1cc(C(N)=S)ccn1	0.2 µM	21 µM (≈ 3.79 µg/mL)	210	0.1 µM	105	1.62 V
CCOC(=O)CCc1cc(C(N)=S)ccn1	1.3 µM	> 30 µM	>8	3.8 µM	>23	–
CCc1cc(/C(N)=[S+]/[O-])ccn1	0.3 µM	10 µM (≈ 1.82 µg/mL)	25	0.4 µM	33	–
CCCCc1cc(C(N)=O)ccn1	> 30 µM	> 30 µM	–	> 30 µM	–	–
CCc1cc(C(N)=S)ccn1 [ETHIONAMIDE]	0.9 µM	19 µM (≈ 3.16 µg/mL)	10	2 µM	21	1.46 V
CCCCc1cc(C(N)=S)ccn1	0.4 µM	5.8 µM (≈ 1.13 µg/mL)	10	0.6 µM	15	1.39 V
NC(=S)c1ccnc(C2(C(F)(F)F)CC2)c1	10 µM	> 30 µM	>3	10 µM	>3	1.65 V
NC(=S)c1ccnc(CC(F)(F)F)c1	1.5 µM	> 30 µM	>3	10 µM	>20	1.55 V
COc1ccc(Cc2cc(C(N)=S)ccn2)cc1	0.2 µM	2.4 µM (≈ 0.62 µg/mL)	8	0.3 µM	12	–
NC(=S)c1ccnc(Cc2ccc(F)cc2)c1	0.1 µM	1 µM (≈ 0.246 µg/mL)	5	0.2 µM	10	–
CC(C)Cc1cc(C(N)=S)ccn1	3.8 µM	> 30 µM	>3	9.1 µM	>8	1.57 V
CCC(C)c1cc(C(N)=S)ccn1 (centres undefined)	0.2 µM	30 µM (≈ 5.83 µg/mL)	150	0.2 µM	150	1.48 V
NC(=S)c1ccnc(Cc2ccccc2)c1	0.1 µM	1.1 µM (≈ 0.251 µg/mL)	11	0.1 µM	11	–
CC(c1ccccc1)c1cc(C(N)=S)ccn1 (centres undefined)	0.7 µM	> 30 µM	>50	0.6 µM	>43	–
CC(C)CCc1cc(C(N)=S)ccn1	0.1 µM	6.6 µM (≈ 1.37 µg/mL)	52	0.1 µM	52	1.63 V
CCCc1cc(C(N)=S)ccn1 [PROTIONAMIDE]	0.5 µM	13 µM (≈ 2.34 µg/mL)	14	0.9 µM	26	1.43 V
N#Cc1cccc(Cc2cc(C(N)=S)ccn2)c1	0.1 µM	0.5 µM (≈ 0.127 µg/mL)	5	0.1 µM	5	–
NC(=S)c1ccnc(Cc2cccc(F)c2)c1	0.1 µM	0.6 µM (≈ 0.148 µg/mL)	6	0.1 µM	6	–
NC(=S)c1ccnc(C2CC2)c1	0.5 µM	6.6 µM (≈ 1.18 µg/mL)	7	1 µM	13	1.4 V
